Measured values as given in patent US11084823B2, “Substituted pyrrolo[2,1-f][1,2,4]triazines as kinase inhibitors” (Daewoong Pharmaceutical Co., Ltd., priority 2017, dated 2021).
pIC50: −log10 of the molar value.

Legend:
[1] = target: Recombinant purified human JAK3 (Homo sapiens (Human), UniProt P52333); assay: JAK3 kinase inhibitory activity, ADP-Glo kinase assay kit (Promega V9441); assay type: biochemical; settings: ATP 5 uM, 4 ng JAK3 per reaction, 1 hour at 30° C., chemiluminescence
Method: (§1) JAK3 and BTK kinase inhibitory activities were measured for the compounds prepared in the above Examples through in vitro analysis on the ADP Glow (Glo) platform.
(§2) Specifically, the inhibitory activities of JAK3 and BTK kinase were measured using a JAK3 kinase assay kit (Promega, V9441) and a BTK kinase assay kit (Promega, V9071) which were purchased from Promega. Recombinant purified human JAK3 and BTK were diluted with 1× kinase reaction buffer (JAK3: 40 mM Tris-Cl, pH 7.5, 20 mM MgCl2, 0.1 mg/mL BSA and 50 uM DTT/BTK: 40 mM Tris-Cl, pH 7.5, 20 mM MgCl2, 0.1 mg/mL BSA, 2 mM MnCl2 and 50 uM DTT) and added to a 96 well plate (JAK3: final concentration of 4 ng per reaction/BTK: final concentration of 8 ng per reaction). […] After incubation (30° C.) for 1 hour, equivalent volume (25 uL per reaction) of ADP Glo was added and incubated (30° C.) for 40 minutes at room temperature. Then, a kinase detection reagent (50 uL per reaction) was added and incubated (30° C.) for 30 minutes at room temperature. The kinase activity was measured by chemiluminescence according to the instructions of ADP Glo kinase assay kit, and the inhibitory activity of the compounds according to the present invention was calculated.

[2] = target: Recombinant purified human BTK (Homo sapiens (Human), UniProt Q06187); assay: BTK kinase inhibitory activity, ADP-Glo kinase assay kit (Promega V9071); assay type: biochemical; settings: ATP 10 uM, 8 ng BTK per reaction, 1 hour at 30° C., chemiluminescence
Method: as §1, §2

Chain of Recombinant purified human JAK3 (P52333 whole entry): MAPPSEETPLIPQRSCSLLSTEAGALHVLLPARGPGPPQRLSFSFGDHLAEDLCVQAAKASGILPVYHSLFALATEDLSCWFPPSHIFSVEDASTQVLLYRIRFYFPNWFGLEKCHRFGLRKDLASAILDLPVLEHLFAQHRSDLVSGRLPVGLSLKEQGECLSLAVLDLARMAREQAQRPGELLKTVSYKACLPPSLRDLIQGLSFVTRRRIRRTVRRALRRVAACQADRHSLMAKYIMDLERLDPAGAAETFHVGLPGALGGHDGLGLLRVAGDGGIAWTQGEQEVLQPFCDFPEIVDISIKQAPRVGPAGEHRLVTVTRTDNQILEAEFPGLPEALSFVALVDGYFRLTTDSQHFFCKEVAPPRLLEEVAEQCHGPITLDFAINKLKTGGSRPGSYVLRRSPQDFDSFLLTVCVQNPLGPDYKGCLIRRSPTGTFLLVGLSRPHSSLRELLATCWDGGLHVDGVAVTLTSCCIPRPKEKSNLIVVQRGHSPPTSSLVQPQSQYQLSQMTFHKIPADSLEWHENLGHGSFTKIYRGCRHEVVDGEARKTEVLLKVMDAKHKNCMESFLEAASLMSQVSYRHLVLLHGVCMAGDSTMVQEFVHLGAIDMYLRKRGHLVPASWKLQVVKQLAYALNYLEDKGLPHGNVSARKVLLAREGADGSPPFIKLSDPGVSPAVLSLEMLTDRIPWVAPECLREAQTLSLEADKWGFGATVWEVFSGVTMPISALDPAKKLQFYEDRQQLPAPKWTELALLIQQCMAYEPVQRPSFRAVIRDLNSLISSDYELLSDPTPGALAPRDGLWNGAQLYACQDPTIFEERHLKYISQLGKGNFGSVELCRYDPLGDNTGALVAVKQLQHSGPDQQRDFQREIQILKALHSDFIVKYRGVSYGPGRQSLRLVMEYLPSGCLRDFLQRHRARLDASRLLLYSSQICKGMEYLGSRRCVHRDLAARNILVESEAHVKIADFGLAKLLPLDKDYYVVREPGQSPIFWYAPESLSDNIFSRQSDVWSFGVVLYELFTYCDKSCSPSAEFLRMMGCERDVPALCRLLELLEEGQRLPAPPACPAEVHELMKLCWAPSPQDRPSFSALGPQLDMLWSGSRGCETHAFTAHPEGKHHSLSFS
Chain of Recombinant purified human BTK (Q06187 whole entry): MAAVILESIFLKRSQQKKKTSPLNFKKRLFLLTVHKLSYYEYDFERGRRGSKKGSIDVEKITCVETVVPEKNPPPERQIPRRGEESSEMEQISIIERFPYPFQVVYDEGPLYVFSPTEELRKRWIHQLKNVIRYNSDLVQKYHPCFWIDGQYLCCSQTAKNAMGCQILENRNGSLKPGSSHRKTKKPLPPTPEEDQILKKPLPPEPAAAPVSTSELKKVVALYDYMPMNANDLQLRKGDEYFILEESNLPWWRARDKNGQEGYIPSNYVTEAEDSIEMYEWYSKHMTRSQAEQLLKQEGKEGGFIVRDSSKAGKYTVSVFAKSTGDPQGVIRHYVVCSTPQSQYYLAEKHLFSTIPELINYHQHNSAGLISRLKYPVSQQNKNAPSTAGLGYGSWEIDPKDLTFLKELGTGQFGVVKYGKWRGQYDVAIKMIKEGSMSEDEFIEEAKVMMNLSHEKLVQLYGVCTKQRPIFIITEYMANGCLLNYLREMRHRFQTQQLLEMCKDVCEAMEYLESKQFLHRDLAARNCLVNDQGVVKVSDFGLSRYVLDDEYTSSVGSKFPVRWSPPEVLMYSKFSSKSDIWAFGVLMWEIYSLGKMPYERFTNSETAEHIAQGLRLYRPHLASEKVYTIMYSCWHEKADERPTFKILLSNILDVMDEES

Structure (SMILES)	pIC50 [1]	pIC50 [2]
C=CC(=O)Nc1ccc(F)c(Oc2nc(Nc3ccc(N4CCOCC4)cc3)nn3cccc23)c1 [Example 31, N-(4-fluoro-3-((2-((4-morpholinophenyl)amino)pyrrolo[2,1-f][1,2,4]triazin-4-yl)oxy)phenyl)acrylamide]	8.35	7.56
C=CC(=O)Nc1ccc(F)c(Oc2nc(Nc3cnn(CCC)c3)nn3cccc23)c1 [Example 32, N-(4-fluoro-3-((2-((1-propyl-1H-pyrazol-4-yl)amino)pyrrolo[2,1-f][1,2,4]triazin-4-yl)oxy)phenyl)acrylamide]	8.85	8.04
C=CC(=O)Nc1ccc(F)c(Oc2nc(Nc3cnn(C(F)F)c3)nn3cccc23)c1 [Example 33, N-(3-((2-((1-(difluoromethyl)-1H-pyrazol-4-yl)amino)pyrrolo[2,1-f][1,2,4]triazin-4-yl)oxy)-4-fluorophenyl)acrylamide]	8.55	7.82
C=CC(=O)Nc1ccc(F)c(Oc2nc(Nc3cnn(C4CCOCC4)c3)nn3cccc23)c1 [Example 34, N-(4-fluoro-3-((2-((1-(tetrahydro-2H-pyran-4-yl)-1H-pyrazol-4-yl)amino)pyrrolo[2,1-f][1,2,4]triazin-4-yl)oxy)phenyl)acrylamide]	9.30	8.62
C=CC(=O)Nc1ccc(F)c(Oc2nc(Nc3cnn(CCN4CCOCC4)c3)nn3cccc23)c1 [Example 35, N-(4-fluoro-3-((2-((1-(2-morpholinoethyl)-1H-pyrazol-4-yl)amino)pyrrolo[2,1-f][1,2,4]triazin-4-yl)oxy)phenyl)acrylamide]	9.15	8.46
C=CC(=O)Nc1ccc(F)c(Oc2nc(Nc3cnn(C(C)C)c3)nn3cccc23)c1 [Example 36, N-(4-fluoro-3-((2-((1-isopropyl-1H-pyrazol-4-yl)amino)pyrrolo[2,1-f][1,2,4]triazin-4-yl)oxy)phenyl)acrylamide]	8.96	8.36
C=CC(=O)Nc1ccc(F)c(Oc2nc(Nc3cnn(C4CCNCC4)c3)nn3cccc23)c1 [Example 37, N-(4-fluoro-3-((2-((1-(piperidin-4-yl)-1H-pyrazol-4-yl)amino)pyrrolo[2,1-f][1,2,4]triazin-4-yl)oxy)phenyl)acrylamide]	7.94	7.20
C=CC(=O)Nc1ccc(F)c(Oc2nc(Nc3cnn(CC(F)(F)F)c3)nn3cccc23)c1 [Example 38, N-(4-fluoro-3-((2-((1-(2,2,2-trifluoroethyl)-1H-pyrazol-4-yl)amino)pyrrolo[2,1-f][1,2,4]triazin-4-yl)oxy)phenyl)acrylamide]	8.74	7.78
C=CC(=O)Nc1ccc(F)c(Oc2nc(Nc3ccc(-n4nc(C)cc4C)cc3)nn3cccc23)c1 [Example 39, N-(3-((2-((4-(3,5-dimethyl-1H-pyrazol-1-yl)phenyl)amino)pyrrolo[2,1-f][1,2,4]triazin-4-yl)oxy)-4-fluorophenyl)acrylamide]	7.63	6.95
C=CC(=O)Nc1ccc(F)c(Oc2nc(Nc3cnn(CCOC)c3)nn3cccc23)c1 [Example 40, N-(4-fluoro-3-((2-((1-(2-methoxyethyl)-1H-pyrazol-4-yl)amino)pyrrolo[2,1-f][1,2,4]triazin-4-yl)oxy)phenyl)acrylamide]	8.55	7.64
O=C(CCl)Nc1ccc(F)c(Oc2nc(Nc3cnn(CC(F)F)c3)nn3cccc23)c1 [Example 41, 2-chloro-N-(3-((2-((1-(2,2-difluoroethyl)-1H-pyrazol-4-yl)amino)pyrrolo[2,1-f][1,2,4]triazin-4-yl)oxy)-4-fluorophenyl)acetamide]	9.15	8.92
O=C(CCl)Nc1ccc(F)c(Oc2nc(Nc3cnn(C4CCOCC4)c3)nn3cccc23)c1 [Example 42, 2-chloro-N-(4-fluoro-3-((2-((1-(tetrahydro-2H-pyran-4-yl)-1H-pyrazol-4-yl)amino)pyrrolo[2,1-f][1,2,4]triazin-4-yl)oxy)phenyl)acetamide]	9.30	8.89

Continued, values first:

pIC50 [1]	pIC50 [2]	Structure (SMILES)
9.15	8.92	CCn1cc(Nc2nc(Oc3cc(NC(=O)CCl)ccc3F)c3cccn3n2)cn1 [Example 43, 2-chloro-N-(3-((2-((1-ethyl-1H-pyrazol-4-yl)amino)pyrrolo[2,1-f][1,2,4]triazin-4-yl)oxy)-4-fluorophenyl)acetamide]
7.00	6.94	CCn1cc(Nc2nc(Oc3cc(NC(=O)/C=C/CCl)ccc3F)c3cccn3n2)cn1 [Example 44, (E)-4-chloro-N-(3-((2-((1-ethyl-1H-pyrazol-4-yl)amino)pyrrolo[2,1-f][1,2,4]triazin-4-yl)oxy)-4-fluorophenyl)but-2-enamide]
7.49	6.69	C=CC(=O)Nc1ccc(F)c(Oc2nc(Nc3cnoc3)nn3cccc23)c1 [Example 45, N-(4-fluoro-3-(2-(isoxazol-4-ylamino)pyrrolo[2,1-f][1,2,4]triazin-4-yloxy)phenyl)acrylamide]
7.25	6.57	C=CC(=O)Nc1ccc(Cl)c(Oc2nc(Nc3cnn(CC)c3)nn3cccc23)c1 [Example 46, N-(4-chloro-3-((2-((1-ethyl-1H-pyrazol-4-yl)amino)pyrrolo[2,1-f][1,2,4]triazin-4-yl)oxy)phenyl)acrylamide]
7.89	7.28	C=CC(=O)Nc1cc(Oc2nc(Nc3cnn(CC)c3)nn3cccc23)ccc1C [Example 47, N-(5-((2-((1-ethyl-1H-pyrazol-4-yl)amino)pyrrolo[2,1-f][1,2,4]triazin-4-yl)oxy)-2-methylphenyl)acrylamide]
7.86	7.13	C=CC(=O)Nc1cc(Oc2nc(Nc3cnn(CC(F)F)c3)nn3cccc23)ccc1C [Example 48, N-(5-((2-((1-(2,2-difluoroethyl)-1H-pyrazol-4-yl)amino)pyrrolo[2,1-f][1,2,4]triazin-4-yl)oxy)-2-methylphenyl)acrylamide]
< 6.40	7.52	CCC#CC(=O)Nc1ccc(F)c(Oc2nc(Nc3cnn(CC(F)F)c3)nn3cccc23)c1 [Example 49, N-(3-((2-((1-(2,2-difluoroethyl)-1H-pyrazol-4-yl)amino)pyrrolo[2,1-f][1,2,4]triazin-4-yl)oxy)-4-fluorophenyl)pent-2-ynamide]
